This note sets out measurements from ChEMBL document CHEMBL1201862, “PubChem BioAssay data set” (2004).

The structures appear in SMILES notation.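 Five concentrations, 48 hours, 96-well plates. GI50 marks 50% less growth.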 Calls of active or inactive are those of the source. No stated cut-off is given here; in the data, active = GI50 up to about 1.1 µM and inactive = higher. Where only a bound is given, the exact number is not on record here.

Test systems include RXF 393; K562; HCT-116; M14; OVCAR-5; T47D; HOP-62; OVCAR-3; SK-OV-3; NCI/ADR-RES; HOP-92; SF-295; SNB-19; 786-0; U-251; SF-268.
Holding throughout (assay): NCI anticancer screen, dose series, 48 h

Take `COc1cc2c3c4[n+](cc2c(OC)c1OC)CCC4CCC3` (stereo not given): the GI50 was > 84.3 µM (inactive) with RXF 393; 17.9 µM (inactive) in the assay on K562; > 100 µM (inactive) in the assay with HCT-116; > 100 µM (inactive) with M14; > 100 µM (inactive) in the assay with OVCAR-5; 24.9 µM (inactive) in the assay on T47D. Moreover, the GI50 in the assay on HOP-62 is > 100 µM (inactive); in the assay with OVCAR-3, 46.9 µM (inactive); in the assay with SK-OV-3 it was > 100 µM (inactive); with NCI/ADR-RES, > 100 µM (inactive); in the assay with HOP-92, > 100 µM (inactive); in the assay on SF-295 it was > 100 µM (inactive). Further, the GI50 in the assay on SNB-19 is 48.9 µM (inactive); in the assay on 786-0, > 100 µM (inactive); with U-251, 53.8 µM (inactive); in the assay on SF-268, > 100 µM (inactive).
With `CCCCn1c2c(n(CCCC)c1=S)-c1c(n(CCCC)c(=S)n1CCCC)SSc1c(n(CCCC)c(=S)n1CCCC)-c1c(n(CCCC)c(=S)n1CCCC)SSc1c(n(CCCC)c(=S)n1CCCC)-c1c(n(CCCC)c(=S)n1CCCC)SS2`, the GI50 was 2.72 µM (inactive) with RXF 393; 2.03 µM (inactive) with K562; 4.72 µM (inactive) in the assay on HCT-116; 13.4 µM (inactive) with M14; 9.12 µM (inactive) with OVCAR-5; 1.5 µM (inactive) in the assay on T47D. Moreover, the GI50 is 15.2 µM (inactive) in the assay on HOP-62; 1.87 µM (inactive) with OVCAR-3; > 29.2 µM (inactive) in the assay on SK-OV-3; > 50 µM (inactive) in the assay with NCI/ADR-RES; 1.65 µM (inactive) in the assay with HOP-92; 10.4 µM (inactive) in the assay with SF-295. The GI50 was 11.4 µM (inactive) in the assay on SNB-19, 3.56 µM (inactive) with 786-0, 2.15 µM (inactive) in the assay on U-251 and 5.24 µM (inactive) in the assay on SF-268.
As to `Cc1ccc2nc(/C=N/c3ccc(Cl)cc3)cc(C)c2c1`, the GI50 in the assay with RXF 393 was 24.7 µM (inactive); with K562, 0.147 µM (active); in the assay on HCT-116 it was 1.08 µM (active); in the assay on M14, 0.212 µM (active); with OVCAR-5, 3.67 µM (inactive); in the assay with T47D, 2.54 µM (inactive). Also, the GI50 in the assay on HOP-62 was 2.26 µM (inactive); with OVCAR-3, 9.84 µM (inactive); with SK-OV-3 it was 16.8 µM (inactive); with NCI/ADR-RES, 3.44 µM (inactive); in the assay with HOP-92, 18.6 µM (inactive); in the assay with SF-295 it was 0.798 µM (active). Moreover, the GI50 with SNB-19 is 27.6 µM (inactive); in the assay with 786-0, 10.6 µM (inactive); in the assay with U-251, 8.47 µM (inactive); in the assay with SF-268, 14.7 µM (inactive).
In the case of `CCOC(=O)/C=C(/C(=O)OCC)n1cc(C)c(=O)[nH]c1=O`, the GI50 in the assay on RXF 393 is 1.95 µM (inactive); in the assay on K562, 1.9 µM (inactive); in the assay with HCT-116 it was 2.43 µM (inactive); in the assay with M14, 1.95 µM (inactive); in the assay with OVCAR-5 it was 5.87 µM (inactive); in the assay with T47D, 3.69 µM (inactive). The GI50 in the assay on HOP-62 was 18.9 µM (inactive); in the assay on OVCAR-3, 2.68 µM (inactive); in the assay with SK-OV-3, 18.3 µM (inactive); in the assay on NCI/ADR-RES, 10.9 µM (inactive); with HOP-92 it was 1.71 µM (inactive); in the assay on SF-295, 17.3 µM (inactive). Besides, the GI50 in the assay with SNB-19 is 17.3 µM (inactive); in the assay on 786-0 it was 2.49 µM (inactive); with U-251, 6.62 µM (inactive); in the assay with SF-268 it was 8.65 µM (inactive).
Regarding `Cc1cc(C)c2c(O)cc(-c3ccc4ccccc4c3)nc2n1`, the GI50 was 71.6 µM (inactive) in the assay with RXF 393; 2.05 µM (inactive) with K562; 13.8 µM (inactive) with HCT-116; 17.3 µM (inactive) with M14; 43.8 µM (inactive) with OVCAR-5; 17.3 µM (inactive) with T47D. The GI50 with HOP-62 is 32.1 µM (inactive); in the assay on OVCAR-3, 32.4 µM (inactive); with SK-OV-3, 33.3 µM (inactive); in the assay with NCI/ADR-RES, 17.1 µM (inactive); in the assay with HOP-92 it was 11.1 µM (inactive); in the assay with SF-295, 16.2 µM (inactive). Further, the GI50 in the assay with SNB-19 was 30.9 µM (inactive); in the assay with 786-0 it was 39.8 µM (inactive); in the assay on U-251, 16.7 µM (inactive); in the assay with SF-268 it was 57.3 µM (inactive).
